The values that follow come from ChEMBL document CHEMBL3860094, “Synthesis, structure determination, and biological evaluation of phenylsulfonyl hydrazide derivatives as potential anti-inflammatory agents” (Bioorg Med Chem Lett, 2016).

In general, inhibition refers to the change of the read-out against control, counted positive when it falls. Usually IC50 stands for the midpoint of a concentration-inhibition curve.

The species named for one data set is Mus musculus. The experiment in a line: Cytotoxicity against LPS-stimulated mouse RAW264.7 cells assessed as concentration required for reduction in cell viability after 24 hrs by MTT assay. Format: toxicity, cell-based. Conditions: raw264.7, 24 h.
Data set [1] has as its target T1, Prostaglandin E synthase (Mus musculus) (UniProt Q9JM51).
T1 sequence (whole entry): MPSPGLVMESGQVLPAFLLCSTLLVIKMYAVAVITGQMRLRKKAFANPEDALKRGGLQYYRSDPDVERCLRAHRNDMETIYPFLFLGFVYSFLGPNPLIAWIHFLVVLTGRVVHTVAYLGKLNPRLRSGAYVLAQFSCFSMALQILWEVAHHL
The experiment in a line: Inhibition of mPGES-1 in mouse RAW264.7 cells assessed as reduction in LPS-induced PGE2 production at 1 uM after 24 hrs relative to control. Format: cell-based.

For a further data set, the target named is T2, Prostaglandin E synthase (Mus musculus, UniProt Q9JM51).
T2 sequence (Q9JM51 whole entry): T1 sequence (whole entry)
The experiment in a line: Inhibition of mPGES-1 in mouse RAW264.7 cells assessed as reduction in LPS-induced PGE2 production after 24 hrs. Format: cell-based.

Data set [2] concerns the target T3, Prostaglandin G/H synthase 1 (Ovis aries, UniProt P05979).
T3 sequence (P05979 whole entry): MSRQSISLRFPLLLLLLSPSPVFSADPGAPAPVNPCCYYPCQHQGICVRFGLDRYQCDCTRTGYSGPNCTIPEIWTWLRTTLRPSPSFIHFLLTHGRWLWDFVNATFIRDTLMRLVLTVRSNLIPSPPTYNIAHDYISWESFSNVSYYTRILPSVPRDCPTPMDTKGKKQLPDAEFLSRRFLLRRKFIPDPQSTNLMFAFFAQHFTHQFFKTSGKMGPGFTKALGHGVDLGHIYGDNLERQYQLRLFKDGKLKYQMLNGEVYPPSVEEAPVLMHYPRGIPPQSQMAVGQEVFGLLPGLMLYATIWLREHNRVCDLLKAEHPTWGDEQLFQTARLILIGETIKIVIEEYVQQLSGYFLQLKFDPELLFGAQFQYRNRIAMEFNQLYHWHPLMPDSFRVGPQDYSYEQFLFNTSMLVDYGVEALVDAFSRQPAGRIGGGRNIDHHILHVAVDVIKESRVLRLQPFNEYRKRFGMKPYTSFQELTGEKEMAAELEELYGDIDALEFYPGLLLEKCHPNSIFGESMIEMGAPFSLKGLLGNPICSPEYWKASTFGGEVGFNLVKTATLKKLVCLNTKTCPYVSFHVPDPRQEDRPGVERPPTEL
The experiment in a line: Inhibition of ovine COX1 by enzyme immunoassay.

For data set [3], the target named is T4, Prostaglandin G/H synthase 2 (Homo sapiens, UniProt P35354).
T4 sequence (P35354 whole entry): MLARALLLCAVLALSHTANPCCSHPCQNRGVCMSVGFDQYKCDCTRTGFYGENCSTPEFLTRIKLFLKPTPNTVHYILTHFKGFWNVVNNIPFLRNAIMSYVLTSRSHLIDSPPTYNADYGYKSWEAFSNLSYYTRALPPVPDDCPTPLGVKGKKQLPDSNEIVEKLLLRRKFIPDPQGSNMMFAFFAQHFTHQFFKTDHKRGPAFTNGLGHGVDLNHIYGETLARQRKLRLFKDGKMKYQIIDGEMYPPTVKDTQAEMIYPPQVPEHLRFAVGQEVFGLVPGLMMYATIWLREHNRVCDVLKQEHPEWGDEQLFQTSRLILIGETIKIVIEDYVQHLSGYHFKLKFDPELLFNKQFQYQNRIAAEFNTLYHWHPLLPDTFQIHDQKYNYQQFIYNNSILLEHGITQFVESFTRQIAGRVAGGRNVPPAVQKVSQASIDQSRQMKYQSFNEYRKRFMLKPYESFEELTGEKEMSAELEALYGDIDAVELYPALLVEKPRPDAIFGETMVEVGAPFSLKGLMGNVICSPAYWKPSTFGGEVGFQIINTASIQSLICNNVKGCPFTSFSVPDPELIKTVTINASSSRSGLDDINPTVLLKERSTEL
Briefly: Inhibition of recombinant human COX2 by enzyme immunoassay.

In data set [4] the target is T1, Prostaglandin E synthase (Mus musculus). The experiment in a line: Inhibition of mPGES-1 in mouse RAW264.7 cells assessed as reduction in LPS-induced PGE2 production at 3 uM after 24 hrs relative to control. Format: cell-based.
Data set [5] can be described thus: Metabolic stability in human liver microsomes assessed as compound remaining after 30 mins. Format: ADME. The settings on record: read-out: Stability.
The target of data set [6] is T1, Prostaglandin E synthase (Mus musculus). Briefly: Inhibition of mPGES-1 in mouse RAW264.7 cells assessed as reduction in LPS-induced PGE2 production at 10 uM after 24 hrs relative to control. Format: cell-based.
Data set [7] is described as follows: Metabolic stability in dog liver microsomes assessed as compound remaining after 30 mins. Conditions: read-out: Stability. Format: ADME, Canis lupus familiaris.
Data set [8] is described as follows: Metabolic stability in rat liver microsomes assessed as compound remaining after 30 mins. Conditions: read-out: Stability. Format: ADME. A general note: Microsomes from liver hold many membrane-bound enzymes, among them those of drug oxidation.
The nature of data set [9]: Metabolic stability in mouse liver microsomes assessed as compound remaining after 30 mins. Format: ADME. Conditions: read-out: Stability.

`O=C(Oc1ccc2c(c1)CCC2)N(Nc1ccccc1)S(=O)(=O)c1ccc(Cl)cc1`: the Activity in the data set listed under Mus musculus was over 10 µM. Moreover, the inhibition in data set [1] worked out at 75%. Further, the IC50 at Prostaglandin E synthase was 550 nM; in [2], over 1000 nM; in data set [3], over 1000 nM.
Regarding `CS(=O)(=O)Nc1ccc([N+](=O)[O-])cc1OC1CCCCC1` [NS-398], in data set [4], the inhibition amounted to 86%. The IC50 on Prostaglandin E synthase is 7 nM.
In the case of `O=C(Oc1ccc2c(c1)CCC2)N(NS(=O)(=O)c1ccc(Cl)cc1)c1ccccc1`, the Activity in the data set filed under Mus musculus was over 10 µM. For the same molecule, the inhibition in data set [1] was 73%. Also, the IC50 is 790 nM at Prostaglandin E synthase, over 1000 nM in data set [2] and over 1000 nM in data set [3].
For the molecule `COc1ccc(S(=O)(=O)N(Nc2ccccc2)C(=O)Oc2ccccc2OC)cc1`, the Activity in the data set filed under Mus musculus is over 10 µM. Besides, the inhibition in [1] stood at 63%. The IC50 on Prostaglandin E synthase is 690 nM; in [2] it was over 1000 nM; in data set [3] it was over 1000 nM.
With `COc1ccc(CCN(C)CCCC(C#N)(c2ccc(OC)c(OC)c2)C(C)C)cc1OC` (stereo unspecified), the remaining at 0.5 h in data set [5] was under 5%.
For the molecule `COc1ccc(S(=O)(=O)NN(C(=O)Oc2ccccc2OC)c2ccccc2)cc1`, in the data set listed under Mus musculus, the Activity was over 10 µM. Besides, the inhibition stood at 0% in data set [1] and 18% in data set [6]. Further, the IC50 on Prostaglandin E synthase is over 10000 nM.
`COc1ccc(S(=O)(=O)N(Nc2ccccc2)C(=O)Oc2ccc(OCc3ccccc3)cc2)cc1`: the Activity in the data set listed under Mus musculus was over 10 µM. The inhibition in [1] is 84%. The IC50 is 60 nM at Prostaglandin E synthase, over 1000 nM in [2] and over 1000 nM in data set [3]. Further, the remaining at 0.5 h in [5] was found to be 66.6%; in data set [7], 48.5%; in [8] it was 16.3%; in [9] it was 42.2%.
